Test system: SK-MEL-5 TRPM1-promoter luciferase reporter, 24 h
Experiment: reducers of TRPM1 reporter luminescence, concentration series – cell-based, SK-MEL-5, cherry-picked, set 4, MITF inhibitor project, dose response (AID 493102);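 also: actives lower the luciferase signal so the potency reflects inhibition of reporter expression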

Row | SMILES | AC50
1 | CN(C)c1ccc(/C=C(\C#N)c2ccccn2)cc1 | 6.32 µM
2 | Nc1ccc(-c2nc3c(Cl)cc(N)cc3[nH]2)cc1 | 3.76 µM
3 | CCN(CC)S(=O)(=O)c1ccc(NC(=O)c2cccnc2Cl)c(NC(=O)c2cccnc2Cl)c1 | 7.03 µM
4 | O=C(O)c1ccccc1C(=O)Nc1ccc(Oc2cccc3ccccc23)cc1 | 18.8 µM
5 | CC(=O)OCCCNc1cc(Sc2ccc(Cl)cc2)c2nonc2c1[N+](=O)[O-] | 10.9 µM
6 | O=C(CCl)N(c1ccccc1)C1CCS(=O)(=O)C1 (stereo not given) | 9.35 µM
7 | COc1ccccc1C(=O)Nc1nc(-c2ccc(S(=O)(=O)N3CCOCC3)cc2)cs1 | 4.34 µM
8 | CCCOCc1ccc(O)c2ncccc12 | 15.5 µM
9 | O=C(Cc1ccc2c(c1)OCO2)NN=Cc1ccc([N+](=O)[O-])o1 | 8.55 µM
10 | COc1ccc(C(=O)C(CN2CCCC2)c2ccccc2)cc1 (stereo not given) | 9.13 µM
11 | CCN1CCCC1CNC(=O)c1ccc2c(c1)NC(=O)/C(=C\c1ccc(OC)c(OC)c1)S2 (stereo not given) | 13.8 µM
12 | O=[N+]([O-])/C=C\c1ccc(N2CCOCC2)cc1 | 13.6 µM
13 | Cc1[nH]nc2nc(SCC(=O)NCCC3=CCCCC3)n(-c3ccc(Br)cc3)c(=N)c12 | 2.46 µM
14 | CC(C)(C)c1ccc(C(=O)N2CCCCCC2=O)cc1 | 1.12 µM
15 | CCCCN1C=CC(=C2C(=O)c3ccccc3C2=O)C=C1 | 0.921 µM
16 | C=CCn1c(C)cc(C(=O)Cn2ncc(Cl)c(Cl)c2=O)c1C | 9.97 µM
17 | O=C(CSc1ccc(Cl)cc1)NC1CCCC1 | 14.2 µM
18 | N#CC1=C(c2ccccc2)/C(=C/c2ccccc2)OC1=O | 4.25 µM
19 | CC1CC(C)C[N+](=C2C=C(N3CCCC3)CC(C)(C)C2)C1 (stereo not given) | 2.24 µM
20 | O=C(N/N=C/c1cc([N+](=O)[O-])ccc1N1CCNCC1)c1ccc([N+](=O)[O-])cc1 | 8.19 µM
21 | O=C(N/N=C\c1ccc([N+](=O)[O-])s1)c1cncc(Br)c1 | 4.34 µM
22 | COc1cc(/C=C/C(=O)c2ccc3c(c2)OCCO3)cc(Br)c1OCC(=O)N(C)C | 6.17 µM
23 | Cc1c(C#N)c(NC(=O)CCl)n(Cc2ccc(F)cc2)c1C | 7.16 µM

Row | SMILES | AC50
24 | N#Cc1cc2c(nc1SC1CC(=O)N(c3ccccc3)C1=O)CCC2 (stereo not given) | 1.78 µM
25 | N=c1n(CC(=O)c2ccc([N+](=O)[O-])cc2)c2ccccc2n1Cc1ccccc1 | 4.83 µM
26 | O=C(c1ccc(S(=O)(=O)Cc2ccccc2Cl)c([N+](=O)[O-])c1)N1CCN(c2ccccn2)CC1 | 9.49 µM
27 | Cc1ccccc1-n1ncc2c([N+](=O)[O-])cc([N+](=O)[O-])cc21 | 8.7 µM
28 | Cc1ccc(C(C)C)c(OCc2nn(CC(=O)c3ccc(Cl)cc3)c3[n+]2CCCCC3)c1 | 9.83 µM
29 | COc1cccc(C(=O)N/N=C(/c2ccccc2)c2ccccn2)c1 | 5.8 µM
30 | COC(=O)C1=C(C)N(Cc2ccccc2)C(=NCCc2cccnc2)N[C@H]1c1ccc(Br)cc1 | 17.8 µM
31 | COc1cccc(C(=O)Oc2c(CN3CCOCC3)cc(Cl)c3cccnc23)c1 | 9.89 µM
32 | COc1cc2c(cc1O)C(SC)=NC(C)(C)C2 | 11.3 µM
33 | CCOC(=O)C(=Cc1ccc(-n2ccnc2)cc1)C(=O)OCC | 9.38 µM
34 | CCCCN1CCc2c1nc1ccc(Br)cc1c2N | 12.2 µM
35 | COc1ccc(N/N=C/c2c(C(=O)O)ccc3ccccc23)cc1 | 5.11 µM
36 | CC(=O)c1c(C)oc2c1C(=O)c1ccccc1C2=O | 6.68 µM
37 | CC(OC(=O)c1ccc([N+](=O)[O-])s1)C(=O)NC1CCCCC1C (stereo not given) | 12 µM
38 | CC(=O)Nc1ccc(S(=O)(=O)N2CCn3cccc3C2C)cc1 (stereo not given) | 28.7 µM
39 | Cc1ccccc1OCC(=O)Nc1cccc(C(=O)O)c1 | 1.05 µM
40 | CN(Cc1ccccc1)C1=CC(=[N+]2CCCC2)CC(C)(C)C1 | 1.55 µM
41 | Cc1cccc(NC2=C(NC(=O)c3ccccc3)C(=O)c3ccccc3C2=O)c1 | 9.99 µM
42 | O=C(N/N=C/c1ccc([N+](=O)[O-])s1)c1ccccc1Br | 3.65 µM
43 | O=[N+]([O-])c1ccc(/C=N/N=C/c2ccc([N+](=O)[O-])o2)o1 | 9.36 µM
44 | O=C(COC(=O)CCN1C(=O)/C(=C\C=C\c2ccccc2)SC1=S)Nc1cc(F)ccc1F | 7.49 µM
45 | O=C(CCl)Nc1cn(-c2ccccc2)nc1-c1ccccc1 | 14.5 µM

From PubChem BioAssay AID493102 (Broad Institute, 2011)
